Experimental data reported in patent US11542235B2, “Herbicidal 3-azaspiro[5.5] undecane-8, 10-dione compounds” (SYNGENTA PARTICIPATIONS AG, priority 2018, dated 2023).

Experiments:
Type in all cases: in vivo
Setaria faberi (SETFA) = assay: Glasshouse herbicidal test, pre- and post-emergence, Setaria faberi; conditions: 250 g/h, evaluated after 13 days, five point scale; for percentage damage caused to the plant, SETFA POST: post-emergence; for percentage damage caused to the plant, SETFA PRE: pre-emergence
Protocol: (§1) Seeds of a variety of test species are sown in standard soil in pots (Lolium perenne (LOLPE), Setaria faberi (SETFA), Alopecurus myosuroides (ALOMY), Echinochloa crus-galli (ECHCG), Avena fatua (AVEFA)). After cultivation for one day (pre-emergence) or after 8 days cultivation (post-emergence) under controlled conditions in a glasshouse (at 24/16° C., day/night; 14 hours light; 65% humidity), the plants are sprayed with an aqueous spray solution derived from the formulation of the technical active ingredient in acetone/water (50:50) solution containing 0.5% Tween 20 (polyoxyethelyene sorbitan monolaurate, CAS RN 9005-64-5). Compounds are applied at […]. The test plants are then grown in a glasshouse under controlled conditions in a glasshouse (at 24/16° C., day/night; 14 hours light; 65% humidity) and watered twice daily. After 13 days for pre and post-emergence, the test is evaluated for the percentage damage caused to the plant. The biological activities are shown in the following table on a five point scale (5=80-100%; 4=60-79%; 3=40-59%; 2=20-39%; 1=0-19%).

Lolium perenne (LOLPE) = assay: Glasshouse herbicidal test, pre- and post-emergence, Lolium perenne; conditions: 250 g/h, evaluated after 13 days, five point scale; for percentage damage caused to the plant, LOLPE POST: post-emergence; for percentage damage caused to the plant, LOLPE PRE: pre-emergence
Protocol: as §1

Avena fatua (AVEFA) = assay: Glasshouse herbicidal test, pre- and post-emergence, Avena fatua; conditions: 250 g/h, evaluated after 13 days, five point scale; for percentage damage caused to the plant, AVEFA POST: post-emergence; for percentage damage caused to the plant, AVEFA PRE: pre-emergence
Protocol: as §1

[1] = tested on: Alopecurus myosuroides (ALOMY); assay: Glasshouse herbicidal test, pre- and post-emergence, Alopecurus myosuroides; conditions: 250 g/h, evaluated after 13 days, five point scale; for percentage damage caused to the plant, ALOMY POST: post-emergence; for percentage damage caused to the plant, ALOMY PRE: pre-emergence
Protocol: as §1

[2] = tested on: Echinochloa crus-galli (ECHCG); assay: Glasshouse herbicidal test, pre- and post-emergence, Echinochloa crus-galli; conditions: 250 g/h, evaluated after 13 days, five point scale; for percentage damage caused to the plant, ECHCG POST: post-emergence; for percentage damage caused to the plant, ECHCG PRE: pre-emergence
Protocol: as §1

CC#Cc1cc(OC)c(C2C(=O)CC3(CCN(OC)CC3)CC2=O)c(OC)c1 [Compound A4]
5 (5=80-100%): percentage damage caused to the plant, SETFA POST (Setaria faberi (SETFA)) | percentage damage caused to the plant, SETFA PRE (Setaria faberi (SETFA)) | percentage damage caused to the plant, LOLPE POST (Lolium perenne (LOLPE)) | percentage damage caused to the plant, LOLPE PRE (Lolium perenne (LOLPE)) | percentage damage caused to the plant, AVEFA POST (Avena fatua (AVEFA)) | percentage damage caused to the plant, AVEFA PRE (Avena fatua (AVEFA)) | percentage damage caused to the plant, ALOMY POST [1] | percentage damage caused to the plant, ALOMY PRE [1] | percentage damage caused to the plant, ECHCG POST [2] | percentage damage caused to the plant, ECHCG PRE [2]

CC#Cc1cc(C)c(C2C(=O)CC3(CCN(C(=O)C(F)(F)F)CC3)CC2=O)c(C)c1 [Compound A5]
5 (5=80-100%): percentage damage caused to the plant, SETFA POST (Setaria faberi (SETFA)) | percentage damage caused to the plant, SETFA PRE (Setaria faberi (SETFA)) | percentage damage caused to the plant, LOLPE POST (Lolium perenne (LOLPE)) | percentage damage caused to the plant, LOLPE PRE (Lolium perenne (LOLPE)) | percentage damage caused to the plant, AVEFA POST (Avena fatua (AVEFA)) | percentage damage caused to the plant, AVEFA PRE (Avena fatua (AVEFA)) | percentage damage caused to the plant, ALOMY POST [1] | percentage damage caused to the plant, ALOMY PRE [1] | percentage damage caused to the plant, ECHCG POST [2] | percentage damage caused to the plant, ECHCG PRE [2]

CC#Cc1cc(C)c(C2C(=O)CC3(CCN(C(=O)C(F)F)CC3)CC2=O)c(C)c1 [Compound A6]
5 (5=80-100%): percentage damage caused to the plant, SETFA POST (Setaria faberi (SETFA)) | percentage damage caused to the plant, SETFA PRE (Setaria faberi (SETFA)) | percentage damage caused to the plant, LOLPE POST (Lolium perenne (LOLPE)) | percentage damage caused to the plant, LOLPE PRE (Lolium perenne (LOLPE)) | percentage damage caused to the plant, AVEFA POST (Avena fatua (AVEFA)) | percentage damage caused to the plant, AVEFA PRE (Avena fatua (AVEFA)) | percentage damage caused to the plant, ALOMY POST [1] | percentage damage caused to the plant, ALOMY PRE [1] | percentage damage caused to the plant, ECHCG POST [2] | percentage damage caused to the plant, ECHCG PRE [2]

CC#Cc1cc(C)c(C2C(=O)CC3(CCN(CC(F)(F)F)CC3)CC2=O)c(C)c1 [Compound A7]
5 (5=80-100%): percentage damage caused to the plant, SETFA POST (Setaria faberi (SETFA)) | percentage damage caused to the plant, SETFA PRE (Setaria faberi (SETFA)) | percentage damage caused to the plant, LOLPE POST (Lolium perenne (LOLPE)) | percentage damage caused to the plant, LOLPE PRE (Lolium perenne (LOLPE)) | percentage damage caused to the plant, AVEFA POST (Avena fatua (AVEFA)) | percentage damage caused to the plant, AVEFA PRE (Avena fatua (AVEFA)) | percentage damage caused to the plant, ALOMY POST [1] | percentage damage caused to the plant, ALOMY PRE [1] | percentage damage caused to the plant, ECHCG POST [2] | percentage damage caused to the plant, ECHCG PRE [2]

CC#Cc1cc(C)c(C2C(=O)CC3(CCN(OC)CC3)CC2=O)c(C)c1 [Compound A8]
5 (5=80-100%): percentage damage caused to the plant, SETFA POST (Setaria faberi (SETFA)) | percentage damage caused to the plant, SETFA PRE (Setaria faberi (SETFA)) | percentage damage caused to the plant, LOLPE POST (Lolium perenne (LOLPE)) | percentage damage caused to the plant, LOLPE PRE (Lolium perenne (LOLPE)) | percentage damage caused to the plant, AVEFA POST (Avena fatua (AVEFA)) | percentage damage caused to the plant, AVEFA PRE (Avena fatua (AVEFA)) | percentage damage caused to the plant, ALOMY POST [1] | percentage damage caused to the plant, ALOMY PRE [1] | percentage damage caused to the plant, ECHCG POST [2] | percentage damage caused to the plant, ECHCG PRE [2]

CC#Cc1cc(C)c(C2C(=O)CC3(CCN(C(=O)C(C)C)CC3)CC2=O)c(C)c1 [Compound A11]
5 (5=80-100%): percentage damage caused to the plant, SETFA POST (Setaria faberi (SETFA)) | percentage damage caused to the plant, SETFA PRE (Setaria faberi (SETFA)) | percentage damage caused to the plant, LOLPE POST (Lolium perenne (LOLPE)) | percentage damage caused to the plant, LOLPE PRE (Lolium perenne (LOLPE)) | percentage damage caused to the plant, AVEFA POST (Avena fatua (AVEFA)) | percentage damage caused to the plant, AVEFA PRE (Avena fatua (AVEFA)) | percentage damage caused to the plant, ALOMY POST [1] | percentage damage caused to the plant, ALOMY PRE [1] | percentage damage caused to the plant, ECHCG POST [2] | percentage damage caused to the plant, ECHCG PRE [2]

CC#Cc1cc(C)c(C2C(=O)CC3(CCN(C(=O)C(C)(C)C)CC3)CC2=O)c(C)c1 [Compound A12]
5 (5=80-100%): percentage damage caused to the plant, SETFA POST (Setaria faberi (SETFA)) | percentage damage caused to the plant, SETFA PRE (Setaria faberi (SETFA)) | percentage damage caused to the plant, LOLPE POST (Lolium perenne (LOLPE)) | percentage damage caused to the plant, LOLPE PRE (Lolium perenne (LOLPE)) | percentage damage caused to the plant, AVEFA POST (Avena fatua (AVEFA)) | percentage damage caused to the plant, AVEFA PRE (Avena fatua (AVEFA)) | percentage damage caused to the plant, ALOMY POST [1] | percentage damage caused to the plant, ALOMY PRE [1] | percentage damage caused to the plant, ECHCG POST [2] | percentage damage caused to the plant, ECHCG PRE [2]

CC#Cc1cc(OC)c(C2C(=O)CC3(CCN(C(C)=O)CC3)CC2=O)c(OC)c1 [Compound A14]
5 (5=80-100%): percentage damage caused to the plant, SETFA POST (Setaria faberi (SETFA)) | percentage damage caused to the plant, SETFA PRE (Setaria faberi (SETFA)) | percentage damage caused to the plant, LOLPE POST (Lolium perenne (LOLPE)) | percentage damage caused to the plant, LOLPE PRE (Lolium perenne (LOLPE)) | percentage damage caused to the plant, AVEFA POST (Avena fatua (AVEFA)) | percentage damage caused to the plant, AVEFA PRE (Avena fatua (AVEFA)) | percentage damage caused to the plant, ALOMY POST [1] | percentage damage caused to the plant, ALOMY PRE [1] | percentage damage caused to the plant, ECHCG POST [2] | percentage damage caused to the plant, ECHCG PRE [2]

CC#Cc1cc(C)c(C2C(=O)CC3(CCN(C(C)=O)CC3)CC2=O)c(OC)c1 [Compound A15]
5 (5=80-100%): percentage damage caused to the plant, SETFA POST (Setaria faberi (SETFA)) | percentage damage caused to the plant, SETFA PRE (Setaria faberi (SETFA)) | percentage damage caused to the plant, LOLPE POST (Lolium perenne (LOLPE)) | percentage damage caused to the plant, LOLPE PRE (Lolium perenne (LOLPE)) | percentage damage caused to the plant, AVEFA POST (Avena fatua (AVEFA)) | percentage damage caused to the plant, AVEFA PRE (Avena fatua (AVEFA)) | percentage damage caused to the plant, ALOMY POST [1] | percentage damage caused to the plant, ALOMY PRE [1] | percentage damage caused to the plant, ECHCG POST [2] | percentage damage caused to the plant, ECHCG PRE [2]

CC#Cc1cc(C)c(C2=C(O)CC3(CCN(C(C)=O)CC3)CC2=O)c(C)c1 [Compound A17]
5 (5=80-100%): percentage damage caused to the plant, SETFA POST (Setaria faberi (SETFA)) | percentage damage caused to the plant, SETFA PRE (Setaria faberi (SETFA)) | percentage damage caused to the plant, LOLPE POST (Lolium perenne (LOLPE)) | percentage damage caused to the plant, LOLPE PRE (Lolium perenne (LOLPE)) | percentage damage caused to the plant, AVEFA POST (Avena fatua (AVEFA)) | percentage damage caused to the plant, AVEFA PRE (Avena fatua (AVEFA)) | percentage damage caused to the plant, ALOMY POST [1] | percentage damage caused to the plant, ALOMY PRE [1] | percentage damage caused to the plant, ECHCG POST [2] | percentage damage caused to the plant, ECHCG PRE [2]

CC#Cc1cc(C)c(C2=C([O-])CC3(CCN(C(C)=O)CC3)CC2=O)c(C)c1.[Na+] [Compound A18]
5 (5=80-100%): percentage damage caused to the plant, SETFA POST (Setaria faberi (SETFA)) | percentage damage caused to the plant, SETFA PRE (Setaria faberi (SETFA)) | percentage damage caused to the plant, LOLPE POST (Lolium perenne (LOLPE)) | percentage damage caused to the plant, LOLPE PRE (Lolium perenne (LOLPE)) | percentage damage caused to the plant, AVEFA POST (Avena fatua (AVEFA)) | percentage damage caused to the plant, AVEFA PRE (Avena fatua (AVEFA)) | percentage damage caused to the plant, ALOMY POST [1] | percentage damage caused to the plant, ALOMY PRE [1] | percentage damage caused to the plant, ECHCG POST [2] | percentage damage caused to the plant, ECHCG PRE [2]

CC#Cc1cc(C)c(C2C(=O)CC3(CCN(C(=O)C(F)F)CC3)CC2=O)c(OC)c1 [Compound A19]
5 (5=80-100%): percentage damage caused to the plant, SETFA POST (Setaria faberi (SETFA)) | percentage damage caused to the plant, SETFA PRE (Setaria faberi (SETFA)) | percentage damage caused to the plant, LOLPE POST (Lolium perenne (LOLPE)) | percentage damage caused to the plant, LOLPE PRE (Lolium perenne (LOLPE)) | percentage damage caused to the plant, AVEFA POST (Avena fatua (AVEFA)) | percentage damage caused to the plant, AVEFA PRE (Avena fatua (AVEFA)) | percentage damage caused to the plant, ALOMY POST [1] | percentage damage caused to the plant, ALOMY PRE [1] | percentage damage caused to the plant, ECHCG PRE [2]
